Experiments:
[1] = Fluorescence properties of the new compounds (excitation and emission wavelengths); format: physicochemical; conditions: free compound
[2] = system: c-myc promoter region G-quadruplex; conditions: 1 μM ligand, 24 hours, room temperature
Excerpt: (§1) Compounds that bind nucleic acids may show preference for certain sequences. This preference can be used for the detection of specific nucleic acid sequences. One of the methods used to analyse the sequence specificity of DNA-binding compounds is the competition dialysis (c.f. Ren, J. et al., “Sequence and structural selectivity of nucleic acid binding ligands”, Biochemistry, 1999, vol. 38, pp […]). In this method different nucleic acid structures are dialyzed against a common compound solution. […] The amount of compound present in each DNA sequence is measured by fluorescence.
(§2) Furthermore, the inventors analyzed the binding properties of two dimers of the invention, Act-p-Act and Act-p-Qut, in front of several DNA sequences which are known in the state in the art to be biologically-relevant G-quadruplex structures: • 5′- […]-3′, (SEQ ID NO: 1 supra) as thrombin-binding aptamer: G-quadruplex; • 5′- […]-3′ (SEQ ID NO: 2) as a fragment of the promoter region of c-myc oncogen (c.f. Siddiqui-Jain A. et al., “Direct evidence for a G-quadruplex in a promoter region and its targeting with a small molecule to repress c-myc transcription”, Proc. Natl. Acad. Sci. USA, 2002, v. 99, p. […]
(§3) The concentration of the polymer (which is determined by fluorescence spectroscopy) indicates its specificity for a specific sequence: the more higher is the concentration, more specific is for said sequence.

[3] = system: human telomere G-quadruplex; conditions: 1 μM ligand, 24 hours, room temperature
Excerpt: as §1, §2, §3

Fluorescence Excitation (nm) [1]: 358 nm
Fluorescence emission (nm) [1]: 438 nm
Structure (SMILES): CC(O)C(COP(=O)(O)OC(C)C(CO)NC(=O)c1c2ccccc2nc2ccccc12)NC(=O)c1c2ccccc2nc2c1[nH]c1ccccc12 (stereo not shown) [Example 27, O-{2-N-(Acridine-9-carbamoyl)-(1-hydroxybut-3-yl)} and O-{2-N-(10H-indolo[3,2-d]quinoline-11-carbamoyl)-3-hydroxybut-1-yl) phosphate]
affinity (concentration of polymer retained, by fluorescence) [2]: very high affinity
affinity (concentration of polymer retained, by fluorescence) [3]: very high affinity
